Where “and” joins values, the source holds several entries; their conditions need not be identical. Equal values may be shown once.
Experiments:
Format in all cases: cell-based
[1] = target: 320 non-olfactory GPCRs (Homo sapiens, UniProt Q16581)
[2] = target: T1, 320 non-olfactory GPCRs (Homo sapiens, UniProt Q8TDS5); details: receptor OXER1; replicate values, Fig_4g
T1 construct: expressed in transfected cells; host or cells: HTLA cells

[3] = target: T2, 320 non-olfactory GPCRs (Homo sapiens, UniProt Q8IZF3)
T2 construct: expressed in transfected cells; host or cells: HTLA cells

[4] = target: 320 non-olfactory GPCRs (Homo sapiens, UniProt Q96LA9); details: receptor MRGPRX4; replicate values, Fig_4g
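Wherever Fold of Basal is given: compound tested at 1 µM final concentration.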
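Wherever GPCRome agonism screen response is given: fold over basal response of each receptor without drug.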

T1 sequence (Q8TDS5 whole entry): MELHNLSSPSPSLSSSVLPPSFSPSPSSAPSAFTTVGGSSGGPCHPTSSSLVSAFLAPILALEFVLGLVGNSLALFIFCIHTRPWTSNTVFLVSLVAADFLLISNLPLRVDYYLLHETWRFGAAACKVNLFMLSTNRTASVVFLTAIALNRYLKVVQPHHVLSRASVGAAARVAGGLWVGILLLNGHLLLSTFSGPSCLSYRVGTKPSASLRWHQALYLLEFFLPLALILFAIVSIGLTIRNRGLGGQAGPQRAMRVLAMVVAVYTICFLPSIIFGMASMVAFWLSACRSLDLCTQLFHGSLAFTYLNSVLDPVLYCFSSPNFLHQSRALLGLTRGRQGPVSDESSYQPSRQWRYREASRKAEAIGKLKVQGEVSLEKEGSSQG
Sequence of 320 non-olfactory GPCRs (Homo sapiens, UniProt Q96LA9) (Q96LA9 whole entry): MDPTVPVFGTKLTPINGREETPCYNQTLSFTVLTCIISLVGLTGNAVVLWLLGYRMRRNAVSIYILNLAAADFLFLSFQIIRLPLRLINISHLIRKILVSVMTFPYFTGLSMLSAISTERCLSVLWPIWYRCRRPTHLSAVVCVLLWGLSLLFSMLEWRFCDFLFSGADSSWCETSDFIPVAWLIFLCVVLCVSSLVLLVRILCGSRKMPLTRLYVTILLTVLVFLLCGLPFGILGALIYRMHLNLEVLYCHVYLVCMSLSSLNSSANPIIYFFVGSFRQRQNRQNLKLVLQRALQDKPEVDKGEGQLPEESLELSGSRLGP
T2 sequence (Q8IZF3 22-695): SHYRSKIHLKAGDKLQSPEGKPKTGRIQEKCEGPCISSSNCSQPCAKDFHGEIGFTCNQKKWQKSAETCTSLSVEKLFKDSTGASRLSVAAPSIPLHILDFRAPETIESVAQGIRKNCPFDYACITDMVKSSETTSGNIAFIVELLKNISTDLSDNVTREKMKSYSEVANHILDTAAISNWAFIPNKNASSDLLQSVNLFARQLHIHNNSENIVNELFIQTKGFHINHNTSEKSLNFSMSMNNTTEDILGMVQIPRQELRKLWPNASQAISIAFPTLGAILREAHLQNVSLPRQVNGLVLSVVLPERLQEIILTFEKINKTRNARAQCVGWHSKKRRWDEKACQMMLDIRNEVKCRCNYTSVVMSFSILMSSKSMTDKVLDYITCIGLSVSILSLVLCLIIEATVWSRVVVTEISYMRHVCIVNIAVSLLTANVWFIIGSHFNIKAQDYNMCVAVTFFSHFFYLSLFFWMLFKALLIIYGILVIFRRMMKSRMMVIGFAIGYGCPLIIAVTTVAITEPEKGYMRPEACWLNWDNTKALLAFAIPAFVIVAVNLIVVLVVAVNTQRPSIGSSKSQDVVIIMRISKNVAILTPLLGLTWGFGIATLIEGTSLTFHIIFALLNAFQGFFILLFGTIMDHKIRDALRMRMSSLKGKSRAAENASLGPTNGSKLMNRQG
Sequence of 320 non-olfactory GPCRs (Homo sapiens, UniProt Q16581) (Q16581 whole entry): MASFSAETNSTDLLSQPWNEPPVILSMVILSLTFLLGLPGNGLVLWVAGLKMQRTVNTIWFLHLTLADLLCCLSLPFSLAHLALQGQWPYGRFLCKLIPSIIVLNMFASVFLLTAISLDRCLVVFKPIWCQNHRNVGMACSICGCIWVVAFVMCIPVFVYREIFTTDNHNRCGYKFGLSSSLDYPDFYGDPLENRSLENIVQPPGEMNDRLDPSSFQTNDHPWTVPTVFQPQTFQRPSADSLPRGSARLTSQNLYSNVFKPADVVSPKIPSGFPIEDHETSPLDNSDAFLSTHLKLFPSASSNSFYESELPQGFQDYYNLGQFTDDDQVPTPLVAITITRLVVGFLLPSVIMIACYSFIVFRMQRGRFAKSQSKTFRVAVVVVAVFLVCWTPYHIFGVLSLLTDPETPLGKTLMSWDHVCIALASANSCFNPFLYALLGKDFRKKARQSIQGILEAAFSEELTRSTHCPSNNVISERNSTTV

Structure (SMILES): CCOc1cccc2cc(C(C)NCC3(O)CCCCC3)oc12 (stereo not shown) [O4LE6]
- Fold of Basal [1]: 1.165 and 1.05 and 0.9669 and 0.8841
- GPCRome agonism screen response [2]: 0.5177 and 0.9727 and 1.432 and 1.135
- Fold of Basal [3]: 1.314 and 0.8065 and 0.6945
- GPCRome agonism screen response [4]: 0.3813 and 0.7022 and 0.804 and 1.112

— PMC7044277 (Nature Communications, 2020)
